The text below walks through data of BindingDB's records for doi:10.1021/jm970389+ (Abbott Laboratories, 1998).

Bounds are passed on as bounds.

The nature of the test: Binding potency against Platelet activating factor (PAF) receptor using [3H]C18-PAF as radioligand on rabbit platelet membranes.

In the case of `Cc1nc2cnccc2n1CCN1CCN(S(=O)(=O)c2cn(C(=O)N(C)C)c3cc(-c4ccc(F)cc4)ccc23)CC1` [6-(4-Fluoro-phenyl)-3-{4-[2-(2-methyl-imidazo[4,5-c]pyridin-1-yl)-ethyl]-piperazine-1-sulfonyl}-indole-1-carboxylic acid dimethylamide], the inhibition constant (Ki) was found to be 53 nM.

In turn, `Cc1nc2cnccc2n1Cc1ccc(C(=O)c2cn(C(=O)N(C)C)c3ccccc23)cc1` [3-[4-(2-Methyl-imidazo[4,5-c]pyridin-1-ylmethyl)-benzoyl]-indole-1-carboxylic acid dimethylamide] registered a Ki of 6.8 nM.

Turning to `COC(=O)c1ccc2c(c1)c(C(=O)c1ccc(Cn3c(C)nc4cnccc43)cc1)cn2C(=O)N(C)C` [1-Dimethylcarbamoyl-3-[4-(2-methyl-imidazo[4,5-c]pyridin-1-ylmethyl)-benzoyl]-1H-indole-5-carboxylic acid methyl ester], the inhibition constant (Ki) was determined as 110 nM.

Compound `COC(=O)c1cccc2c1c(S(=O)(=O)c1ccc(Cn3c(C)nc4cnccc43)cc1)cn2C(=O)N(C)C` [1-Dimethylcarbamoyl-3-[4-(2-methyl-imidazo[4,5-c]pyridin-1-ylmethyl)-benzenesulfonyl]-1H-indole-4-carboxylic acid methyl ester] registered a Ki of 13 nM.

Take `Cc1nc2cnccc2n1Cc1ccc(C(=O)c2cn(C(=O)N(C)C)c3cccc(C(=O)OC(C)C)c23)cc1` [1-Dimethylcarbamoyl-3-[4-(2-methyl-imidazo[4,5-c]pyridin-1-ylmethyl)-benzoyl]-1H-indole-4-carboxylic acid isopropyl ester]: the Ki amounted to 4.7 nM.

`Cc1nc2cnccc2n1Cc1ccc(S(=O)(=O)c2cn(C(=O)N(C)C)c3ccccc23)cc1` [3-[4-(2-Methyl-imidazo[4,5-c]pyridin-1-ylmethyl)-benzenesulfonyl]-indole-1-carboxylic acid dimethylamide] displayed a Ki of 12 nM. Against the preceding compound, the Ki is about 2.6-fold higher.

Compound `Cc1nc2cnccc2n1Cc1ccc(C(=O)c2c[nH]c3c(OCc4ccccc4)cccc23)cc1` [(7-Benzyloxy-1H-indol-3-yl)-[4-(2-methyl-imidazo[4,5-c]pyridin-1-ylmethyl)-phenyl]-methanone] had a Ki of 12 nM.

In turn, `COC(=O)c1cccc2c1c(C(=O)Cc1ccc(-n3c(C)nc4cnccc43)cc1)cn2C(=O)N(C)C` [1-Dimethylcarbamoyl-3-{2-[4-(2-methyl-imidazo[4,5-c]pyridin-1-yl)-phenyl]-acetyl}-1H-indole-4-carboxylic acid methyl ester] had an inhibition constant Ki of 0.63 nM.

As for `COC(=O)c1[nH]c2cccc(OC)c2c1C(=O)c1ccc(Cn2c(C)nc3cnccc32)cc1` [4-Methoxy-3-[4-(2-methyl-imidazo[4,5-c]pyridin-1-ylmethyl)-benzoyl]-1H-indole-2-carboxylic acid methyl ester], the inhibition constant Ki is 0.51 nM.

Take `Cc1cccc2c1c(C(=O)CN1CCC(n3c(C)nc4cnccc43)CC1)cn2C(=O)N(C)C` [4-Methyl-3-{2-[4-(2-methyl-imidazo[4,5-c]pyridin-1-yl)-piperidin-1-yl]-acetyl}-indole-1-carboxylic acid dimethylamide]: affinity was put at a Ki of 2 nM.

Turning to `COC(=O)c1cccc2c1c(C(=O)c1ccc(Cn3c(C)nc4cnccc43)cc1)cn2C(C)C` [1-Isopropyl-3-[4-(2-methyl-imidazo[4,5-c]pyridin-1-ylmethyl)-benzoyl]-1H-indole-4-carboxylic acid methyl ester], the Ki was found to be 1.3 nM.

As for `C#Cc1cccc2c1c(C(O)c1ccc(Cn3c(C)nc4cnccc43)c(F)c1)cn2C(=O)N(C)C` (configuration not stated) [4-Ethynyl-3-{[3-fluoro-4-(2-methyl-imidazo[4,5-c]pyridin-1-ylmethyl)-phenyl]-hydroxy-methyl}-indole-1-carboxylic acid dimethylamide], the Ki came to 1.5 nM. This Ki and that of the compound before are within 1.5-fold of each other.

`COC(=O)c1cccc2c1c(C(=O)c1ccc(Cn3c(C)nc4c[n+]([O-])ccc43)cc1)cn2C(=O)N(C)C` [1-Dimethylcarbamoyl-3-[4-(2-methyl-5-oxy-imidazo[4,5-c]pyridin-1-ylmethyl)-benzoyl]-1H-indole-4-carboxylic acid methyl ester] had a Ki of 23 nM.

In the case of `COC(=O)c1cccc2c1c(C(=O)c1ccc(Cn3c(C)nc4cnccc43)c(F)c1)cn2C(=O)N(C)C` [1-Dimethylcarbamoyl-3-[3-fluoro-4-(2-methyl-imidazo[4,5-c]pyridin-1-ylmethyl)-benzoyl]-1H-indole-4-carboxylic acid methyl ester], the Ki amounted to 5 nM.

Regarding `COC(=O)c1cccc2c1c(C(=O)CCCCn1c(C)nc3cnccc31)cn2C(=O)N(C)C` [1-Dimethylcarbamoyl-3-[5-(2-methyl-imidazo[4,5-c]pyridin-1-yl)-pentanoyl]-1H-indole-4-carboxylic acid methyl ester], the affinity corresponds to a Ki of 11 nM. Against the preceding compound, the Ki is about 2.2-fold higher.

As to `CCOCCn1cc(C(=O)CN2CCC(n3c(C)nc4cnccc43)CC2)c2c(Cl)cccc21` [1-[4-Chloro-1-(2-ethoxy-ethyl)-1H-indol-3-yl]-2-[4-(2-methyl-imidazo[4,5-c]pyridin-1-yl)-piperidin-1-yl]-ethanone], the inhibition constant (Ki) was determined as 15 nM.

In turn, `COC(=O)c1cccc2c1c(C(=O)c1ccc(Cn3c(C)nc4cnccc43)s1)cn2C(=O)N(C)C` [1-Dimethylcarbamoyl-3-[5-(2-methyl-imidazo[4,5-c]pyridin-1-ylmethyl)-thiophene-2-carbonyl]-1H-indole-4-carboxylic acid methyl ester] showed a Ki of 8.2 nM.

For `Cc1nc2cnccc2n1CCCN(C)CC(=O)c1cn(C(=O)N(C)C)c2cc(-c3ccc(F)cc3)ccc12` [6-(4-Fluoro-phenyl)-3-(2-{methyl-[3-(2-methyl-imidazo[4,5-c]pyridin-1-yl)-propyl]-amino}-acetyl)-indole-1-carboxylic acid dimethylamide], the affinity corresponds to a Ki of 140 nM.

For the compound `Cc1nc2cnccc2n1Cc1ccc(C(=O)c2cn(C(=O)N(C)C)c3cccc(F)c23)cc1` [4-Fluoro-3-[4-(2-methyl-imidazo[4,5-c]pyridin-1-ylmethyl)-benzoyl]-indole-1-carboxylic acid dimethylamide], the inhibition constant Ki was found to be 5.1 nM. Against the preceding compound, the Ki is about 27-fold lower.

For the compound `Cc1nc2ccn(Cc3ccc(C(=O)c4cn(C(=O)N(C)C)c5cc(-c6ccc(F)cc6)ccc45)cc3)cc-2n1` [6-(4-Fluoro-phenyl)-3-[4-(2-methyl-imidazo[4,5-c]pyridin-5-ylmethyl)-benzoyl]-indole-1-carboxylic acid dimethylamide], the Ki was > 1000 nM.

`COC(=O)c1cccc2c1c(C(=O)c1ccc(Cn3c(C)nc4cnccc43)cc1)cn2S(=O)(=O)C(C)C` [3-[4-(2-Methyl-imidazo[4,5-c]pyridin-1-ylmethyl)-benzoyl]-1-(propane-2-sulfonyl)-1H-indole-4-carboxylic acid methyl ester] registered a Ki of 0.19 nM.

The compound `Cc1nc2cnccc2n1Cc1csc(C(=O)c2cn(C(=O)N(C)C)c3cc(-c4ccc(F)cc4)ccc23)n1` [6-(4-Fluoro-phenyl)-3-[4-(2-methyl-imidazo[4,5-c]pyridin-1-ylmethyl)-thiazole-2-carbonyl]-indole-1-carboxylic acid dimethylamide] showed a Ki of 39 nM.

In turn, `Cc1nc2cnccc2n1Cc1ccc(C(=O)c2cn(C(=O)N(C)C)c3cccc(O)c23)cc1` [4-Hydroxy-3-[4-(2-methyl-imidazo[4,5-c]pyridin-1-ylmethyl)-benzoyl]-indole-1-carboxylic acid dimethylamide] came in with a Ki of 6.1 nM.

Take `C#Cc1cccc2c1c(C(=O)c1ccc(Cn3c(C)nc4cnccc43)c(F)c1)cn2C(=O)NC` [4-Ethynyl-3-[3-fluoro-4-(2-methyl-imidazo[4,5-c]pyridin-1-ylmethyl)-benzoyl]-indole-1-carboxylic acid methylamide]: the Ki was determined as 0.63 nM. This Ki lies about 9.7-fold lower than the previous one.

Regarding `CNC(=O)n1cc(C(=O)c2ccc(Cn3c(C)nc4cnccc43)cc2)c2c(C(=O)OC)cccc21` [1-Methylcarbamoyl-3-[4-(2-methyl-imidazo[4,5-c]pyridin-1-ylmethyl)-benzoyl]-1H-indole-4-carboxylic acid methyl ester], the Ki was 1.5 nM.

`Cc1nc2cnccc2n1Cc1ccc(C(=O)c2cn(C(=O)N(C)C)c3cccc(NC(=O)c4ccccc4)c23)cc1` [4-Benzoylamino-3-[4-(2-methyl-imidazo[4,5-c]pyridin-1-ylmethyl)-benzoyl]-indole-1-carboxylic acid dimethylamide] returned a Ki of 2 nM. The Ki values of the last two compounds are within 1.5-fold of each other.

`COC(=O)c1cccc2c1c(C(=O)c1ccc(Cn3c(C)nc4cccnc43)cc1)cn2C(=O)N(C)C` [1-Dimethylcarbamoyl-3-[4-(2-methyl-imidazo[4,5-b]pyridin-3-ylmethyl)-benzoyl]-1H-indole-4-carboxylic acid methyl ester] gave a Ki of 10 nM.

On to `COC(=O)c1cc(Br)cc2c1c(C(=O)c1ccc(Cn3c(C)nc4cnccc43)cc1)cn2C(=O)N(C)C` [6-Bromo-1-dimethylcarbamoyl-3-[4-(2-methyl-imidazo[4,5-c]pyridin-1-ylmethyl)-benzoyl]-1H-indole-4-carboxylic acid methyl ester], for which affinity was put at a Ki of 1.4 nM.

For `Cc1nc2cnccc2n1C1CCN(C(=O)c2cn(C(=O)N(C)C)c3cc(-c4ccc(F)cc4)ccc23)CC1` [6-(4-Fluoro-phenyl)-3-[4-(2-methyl-imidazo[4,5-c]pyridin-1-yl)-piperidine-1-carbonyl]-indole-1-carboxylic acid dimethylamide], the affinity corresponds to a Ki of 3.4 nM.

As to `CCc1cccc2c1c(C(=O)c1ccc(Cn3c(C)nc4cnccc43)cc1)cn2C(=O)N(C)C` [4-Ethyl-3-[4-(2-methyl-imidazo[4,5-c]pyridin-1-ylmethyl)-benzoyl]-indole-1-carboxylic acid dimethylamide], the inhibition constant Ki amounted to 0.91 nM.

Consider `Cc1nc2cnccc2n1Cc1ccc(C(=O)c2cn(C(=O)N(C)C)c3cccc(C(=O)O)c23)cc1` [1-Dimethylcarbamoyl-3-[4-(2-methyl-imidazo[4,5-c]pyridin-1-ylmethyl)-benzoyl]-1H-indole-4-carboxylic acid], for which the Ki amounted to 14 nM.

For the compound `Cc1nc2cnccc2n1Cc1cccc(C(=O)c2cn(C(=O)N(C)C)c3cc(-c4ccc(F)cc4)ccc23)c1` [6-(4-Fluoro-phenyl)-3-[3-(2-methyl-imidazo[4,5-c]pyridin-1-ylmethyl)-benzoyl]-indole-1-carboxylic acid dimethylamide], the inhibition constant Ki worked out at 180 nM.
